Assay results as given in patent US3976663A, “Certain cyclopropane carboxylic acid esters of 2,3-dihyrobenzofuran-3-ols” (The Procter & Gamble Company, priority 1971, dated 1976).
Where two headings read alike, the source gives them in different places.

Assays:
houseflies [1] = experiment: Housefly mortality tests, spray tower (Example IV); format: in vivo; settings: for % Mortality (24 hr.): 10 second spray; for housefly mortality compared with the chrysanthemates of Table 1: equivalent amount in the test of Example IV
Protocol: (§1) 3-Coumaranyl chrysanthemate, 5-chloro-3-coumaranyl chrysanthemate, 5-methoxy-3-coumaranyl chrysanthemate, and natural pyrethrum, respectively, were dissolved in acetone and dispersed in distilled water with Triton X-100 emulsifier. The samples were applied for a 10 second period to houseflies retained in a 2 inch × 5 inch diameter screened cage. The spray is applied from the Water's vertical spray tower operating at 10 p.s.i. and discharging about 30 ml. of material per minute through an atomizer. The spray descends through an 8 inch stainless steel cylinder to test insects below the atomizer. The insects were retained in the sprayed cages for mortality observations.

German Cockroach = experiment: Insect mortality test, spray tower (Example VI); format: in vivo; settings: 0.05 + 0.2 synergist (piperonyl butoxide) % W/V, 2 days
Protocol: as §1
(§2) All test species except the webbing clothes moth larvae were sprayed in the Water's vertical spray tower as described in Example IV. For the fabric tests, a two inch square area of wool fabric was dipped in the test formulations.

Mite = experiment: Insect mortality test, spray tower (Example VI); format: in vivo; settings: 0.05 + 0.2 synergist (piperonyl butoxide) % W/V, 5 days
Protocol: as §1, §2

[2] = tested on: Adult saw toothed grain beetles; experiment: Insect mortality test, spray tower (Example VI); format: in vivo; settings: 0.05 + 0.2 synergist (piperonyl butoxide) % W/V, 3 days
Protocol: as §1, §2

Adult rice weevils = experiment: Insect mortality test, spray tower (Example VI); format: in vivo; settings: 0.05 + 0.2 synergist (piperonyl butoxide) % W/V, 3 days
Protocol: as §1, §2

Mexican Bean Beetle = experiment: Insect mortality test, spray tower (Example VI); format: in vivo; settings: 0.005 + 0.02 synergist (piperonyl butoxide) % W/V, 2 days
Protocol: as §1, §2

Pea Aphid = experiment: Insect mortality test, spray tower (Example VI); format: in vivo; settings: 0.005 + 0.02 synergist (piperonyl butoxide) % W/V, 2 days
Protocol: as §1, §2

Southern Armyworm = experiment: Insect mortality test, spray tower (Example VI); format: in vivo; settings: 0.05 + 0.2 synergist (piperonyl butoxide) % W/V, 2 days
Protocol: as §1, §2

Adult mosquito = experiment: Insect mortality test, spray tower (Example VI); format: in vivo; settings: 0.05 + 0.2 synergist (piperonyl butoxide) % W/V, 1 day
Protocol: as §1, §2

[3] = tested on: Black carpet beetle larvae; experiment: Insect mortality test, spray tower (Example VI); format: in vivo; settings: 0.05 + 0.2 synergist (piperonyl butoxide) % W/V, 7 days
Protocol: as §1, §2

Adult stable flies = experiment: Insect mortality test, spray tower (Example VI); format: in vivo; settings: 0.05 + 0.2 synergist (piperonyl butoxide) % W/V, 1 day
Protocol: as §1, §2

[4] = Mammalian toxicity, LD50 (rat); settings: in vivo
[5] = tested on: Webbing clothes moth larvae; experiment: Insect mortality test, wool fabric dipped in test formulation (Example VI); format: in vivo; settings: 0.05 + 0.2 synergist (piperonyl butoxide) % W/V, 7 days
Source text: as §2

German cockroaches = experiment: Residual activity against cockroaches on treated panels (Example V); format: in vivo; settings: Blattella germanica, 48 h
Source text: (§3) 3-Coumaranyl chrysanthemate and natural pyrethrum, respectively, were formulated in deodorized kerosene to give a deposit rate of 100 milligrams per square foot of area for residual evaluation against houseflies and 200 and 400 milligrams per square foot of area for residual evaluation against German cockroaches. The formulations were uniformly applied at the rate of 8 milliliters/sq.ft. on unpainted plywood and 3.5 milliliters/sq.ft. on vinyl asbestos with a camel hair brush. Adult insects were exposed to each treated panel for one hour (houseflies) or two hours (cockroaches), transferred to clean cages, and held for mortality counts. The same treated panels were used for re-exposures after the aging period indicated.

houseflies [6] = experiment: Residual activity against houseflies on treated panels (Example V); format: in vivo; settings: 100 milligrams per square foot, one hour exposure
Source text: as §3

11 other insects = experiment: Insect mortality tests, Example VI as a whole; format: in vivo
Protocol: as §1, §2

[7] = 0.0025 + 0.025 PB (piperonyl butoxide) % W/V
[8] = 0.005 + 0.05 PB (piperonyl butoxide) % W/V
[9] = Musca domestica, topical, 24 h, read-out: % Mortality (24 hr.)

In the case of `CC(C)=CC1C(C(=O)OC2COc3ccc(Cl)cc32)C1(C)C` (racemic) [Example II, (±) cis,trans-5-chloro-3-coumaranyl chrysanthemate], the “% Mortality (24 hr.)” value (houseflies [1]; [7]) is reported as 56%, the “% Mortality (24 hr.)” value (houseflies [1]; [8]) is reported as 99% and the mortality at 0.005 % strength (houseflies [1]; [9]) is reported as 5%.

With `CC1(C)C(C=C2CCCC2)C1C(=O)OC1COc2ccc([N+](=O)[O-])cc21` (stereo not drawn) [5-nitro-3-coumaranyl 3-(2,2-tetramethyleneethenyl)-2-dimethylcyclopropanecarboxylate] the “housefly mortality compared with the chrysanthemates of Table 1” value (houseflies [1]) was “equivalent results”.

In the case of `CC1(C)C(C(=O)OC2COc3ccc([N+](=O)[O-])cc32)C1(C)C` (stereo not drawn) [5-nitro-3-coumaranyl 2,2,3,3-tetramethylcyclopropanecarboxylate], the “housefly mortality compared with the chrysanthemates of Table 1” value (houseflies [1]) is reported as “equivalent results”.

In the case of `CC1(C)C(C=C2CCCC2)C1C(=O)OC1COc2ccccc21` (stereo not drawn) [3-coumaranyl 3-(2,2-tetramethyleneethenyl)-2-dimethylcyclopropanecarboxylate], the “housefly mortality compared with the chrysanthemates of Table 1” value (houseflies [1]) is reported as “equivalent results”.

In the case of `CC1(C)C(C(=O)OC2COc3ccc(Cl)cc32)C1(C)C` (stereo not drawn) [5-chloro-3-coumaranyl 2,2,3,3-tetramethylcyclopropanecarboxylate], the “housefly mortality compared with the chrysanthemates of Table 1” value (houseflies [1]) is reported as “equivalent results”.

With `COc1ccc2c(c1)C(OC(=O)C1C(C=C3CCCC3)C1(C)C)CO2` (stereo not drawn) [5-methoxy-3-coumaranyl 3-(2,2-tetramethyleneethenyl)-2,2-dimethylcyclopropanecarboxylate] the “housefly mortality compared with the chrysanthemates of Table 1” value (houseflies [1]) was “equivalent results”.

For `CC1(C)C(C(=O)OC2COc3ccccc32)C1(C)C` (stereo not drawn) [3-coumaranyl 2,2,3,3-tetramethylcyclopropanecarboxylate], the “housefly mortality compared with the chrysanthemates of Table 1” value (houseflies [1]) was “equivalent results”.

For `COc1ccc2c(c1)C(OC(=O)C1C(C=C(C)C)C1(C)C)CO2` (racemic) [Example III, (±) cis, trans-5-methoxy-3-coumaranyl chrysanthemate], the “% Mortality (24 hr.)” value (houseflies [1]; [8]) was 57%, the “% Mortality (24 hr.)” value (houseflies [1]; 0.01 + 0.1 PB (piperonyl butoxide) % W/V) was 100% and the mortality at 0.01 % strength (houseflies [1]; [9]) was 0%.

For `CC1(C)C(C=C2CCCC2)C1C(=O)OC1COc2ccc(Cl)cc21` (stereo not drawn) [5-chloro-3-coumaranyl 3-(2,2-tetramethyleneethenyl)-2,2-dimethylcyclopropanecarboxylate], the “housefly mortality compared with the chrysanthemates of Table 1” value (houseflies [1]) was “equivalent results”.

For `CC(C)=CC1C(C(=O)OC2COc3ccccc32)C1(C)C` (racemic) [Example I, (±) cis,trans-3-coumaranyl chrysanthemate], the “% Mortality (days)” value (German Cockroach) was 30%, the “% Mortality (days)” value (Mite) was 69% and the “% Mortality (days)” value [2] was 100%. For the same compound, the “% Mortality (days)” value (Adult rice weevils) was 100%, the “% Mortality (days)” value (Mexican Bean Beetle) was 80% and the “% Mortality (days)” value (Pea Aphid) was 65%. For the same compound, the “% Mortality (days)” value (Southern Armyworm) was 70%, the “% Mortality (days)” value (Adult mosquito) was 100% and the “% Mortality (days)” value [3] was 40%. For the same compound, the “% Mortality (days)” value (Adult stable flies) was 100%, the LD50 [4] was over 7570 mg/kg and the “% Mortality (days)” value [5] was 100%. It also gave a mortality at 200 mg/sq ft (German cockroaches; read-out: % Mortality (48 hrs.), Plywood, 200 milligrams per sq. ft., age of residue 1 day, two hours exposure) of 85%, a mortality at 200 mg/sq ft (German cockroaches; read-out: % Mortality (48 hrs.), Plywood, 200 milligrams per sq. ft., age of residue 3 days, two hours exposure) of 83% and a mortality at 200 mg/sq ft (German cockroaches; read-out: % Mortality (48 hrs.), Plywood, 200 milligrams per sq. ft., age of residue 7 days, two hours exposure) of 93%. It also gave a mortality at 200 mg/sq ft (German cockroaches; read-out: % Mortality (48 hrs.), Plywood, 200 milligrams per sq. ft., age of residue 14 days, two hours exposure) of 85%, a mortality at 400 mg/sq ft (German cockroaches; read-out: % Mortality (48 hrs.), Plywood, 400 milligrams per sq. ft., age of residue 1 day, two hours exposure) of 83% and a mortality at 400 mg/sq ft (German cockroaches; read-out: % Mortality (48 hrs.), Plywood, 400 milligrams per sq. ft., age of residue 3 days, two hours exposure) of 83%. For the same compound, the mortality at 400 mg/sq ft (German cockroaches; read-out: % Mortality (48 hrs.), Plywood, 400 milligrams per sq. ft., age of residue 7 days, two hours exposure) was 90%, the mortality at 400 mg/sq ft (German cockroaches; read-out: % Mortality (48 hrs.), Plywood, 400 milligrams per sq. ft., age of residue 14 days, two hours exposure) was 73% and the mortality at 200 mg/sq ft (German cockroaches; read-out: % Mortality (48 hrs.), Vinyl, 200 milligrams per sq. ft., age of residue 1 day, two hours exposure) was 100%. It also gave a mortality at 200 mg/sq ft (German cockroaches; read-out: % Mortality (48 hrs.), Vinyl, 200 milligrams per sq. ft., age of residue 3 days, two hours exposure) of 95%, a mortality at 200 mg/sq ft (German cockroaches; read-out: % Mortality (48 hrs.), Vinyl, 200 milligrams per sq. ft., age of residue 7 days, two hours exposure) of 70% and a mortality at 200 mg/sq ft (German cockroaches; read-out: % Mortality (48 hrs.), Vinyl, 200 milligrams per sq. ft., age of residue 14 days, two hours exposure) of 20%. It also gave a mortality at 400 mg/sq ft (German cockroaches; read-out: % Mortality (48 hrs.), Vinyl, 400 milligrams per sq. ft., age of residue 1 day, two hours exposure) of 100%, a mortality at 400 mg/sq ft (German cockroaches; read-out: % Mortality (48 hrs.), Vinyl, 400 milligrams per sq. ft., age of residue 3 days, two hours exposure) of 100% and a mortality at 400 mg/sq ft (German cockroaches; read-out: % Mortality (48 hrs.), Vinyl, 400 milligrams per sq. ft., age of residue 7 days, two hours exposure) of 100%. For the same compound, the mortality at 400 mg/sq ft (German cockroaches; read-out: % Mortality (48 hrs.), Vinyl, 400 milligrams per sq. ft., age of residue 14 days, two hours exposure) was 83%, the “% Mortality (24 hr.)” value (houseflies [6]; Plywood, age of residue 1 day) was 100% and the “% Mortality (24 hr.)” value (houseflies [6]; Plywood, age of residue 3 days) was 98%. For the same compound, the “% Mortality (24 hr.)” value (houseflies [6]; Plywood, age of residue 7 days) was 83%, the “% Mortality (24 hr.)” value (houseflies [6]; Vinyl, age of residue 1 day) was 100% and the “% Mortality (24 hr.)” value (houseflies [6]; Vinyl, age of residue 3 days) was 100%. The “% Mortality (24 hr.)” value (houseflies [6]; Vinyl, age of residue 7 days) was 59%, the “% Mortality (24 hr.)” value (houseflies [1]; 0.00125 + 0.0125 PB (piperonyl butoxide) % W/V) was 28% and the “% Mortality (24 hr.)” value (houseflies [1]; [7]) was 93%. The mortality at 0.00125 % strength (houseflies [1]; [9]) was 5%, the mortality at 0.0025 % strength (houseflies [1]; [9]) was 6% and the “effectiveness against 11 other insects” value (11 other insects) was “effective”.

For `CC(C)=CC1C(C(=O)OC2COc3ccc([N+](=O)[O-])cc32)C1(C)C` (stereo not drawn) [5-nitro-3-coumaranyl chrysanthemate], the “housefly mortality compared with the chrysanthemates of Table 1” value (houseflies [1]) was “equivalent results”.

In the case of `COc1ccc2c(c1)C(OC(=O)C1C(C)(C)C1(C)C)CO2` (stereo not drawn) [5-methoxy-3-coumaranyl 2,2,3,3-tetramethylcyclopropanecarboxylate], the “housefly mortality compared with the chrysanthemates of Table 1” value (houseflies [1]) is reported as “equivalent results”.
